Experimental data taken from paper PMC7265341, “Quantifying CDK inhibitor selectivity in live cells” (Nature Communications, 2020).
Like-named read-outs stand apart in the source and are kept apart here.

Legend:
CDK19/Cyclin C = CDK19/Cyclin C (Homo sapiens, UniProt Q9BWU1); assay: NanoBRET live-cell target engagement, NanoLuc-CDK19/Cyclin C in HEK-293; settings: read-out: Inhibition at 10µM (%), CDK19/C
CDK5/CDK5R1 = CDK5/CDK5R1 (Homo sapiens, UniProt Q00535); assay: NanoBRET live-cell target engagement, CDK5-NanoLuc/CDK5R1 in HEK-293; assay type: binding; settings: CDK5/CDK5R1, read-out: Inhibition at 10µM (%)
CDK4/Cyclin D1 = CDK4/Cyclin D1 (Homo sapiens, UniProt P11802); assay: NanoBRET live-cell target engagement, NanoLuc-CDK4/Cyclin D1 in HEK-293; assay type: binding; settings: CDK4/D1, read-out: Inhibition at 10µM (%)
CDK11A/Cyclin L2 = molecular target: T1, CDK11A/Cyclin L2 (Homo sapiens, UniProt Q9UQ88); assay: NanoBRET live-cell target engagement, CDK11A-NanoLuc/Cyclin L2 in HEK-293; assay type: binding; settings: CDK11a/L2, read-out: Inhibition at 10µM (%)
T1 sequence (Q9UQ88 1-783): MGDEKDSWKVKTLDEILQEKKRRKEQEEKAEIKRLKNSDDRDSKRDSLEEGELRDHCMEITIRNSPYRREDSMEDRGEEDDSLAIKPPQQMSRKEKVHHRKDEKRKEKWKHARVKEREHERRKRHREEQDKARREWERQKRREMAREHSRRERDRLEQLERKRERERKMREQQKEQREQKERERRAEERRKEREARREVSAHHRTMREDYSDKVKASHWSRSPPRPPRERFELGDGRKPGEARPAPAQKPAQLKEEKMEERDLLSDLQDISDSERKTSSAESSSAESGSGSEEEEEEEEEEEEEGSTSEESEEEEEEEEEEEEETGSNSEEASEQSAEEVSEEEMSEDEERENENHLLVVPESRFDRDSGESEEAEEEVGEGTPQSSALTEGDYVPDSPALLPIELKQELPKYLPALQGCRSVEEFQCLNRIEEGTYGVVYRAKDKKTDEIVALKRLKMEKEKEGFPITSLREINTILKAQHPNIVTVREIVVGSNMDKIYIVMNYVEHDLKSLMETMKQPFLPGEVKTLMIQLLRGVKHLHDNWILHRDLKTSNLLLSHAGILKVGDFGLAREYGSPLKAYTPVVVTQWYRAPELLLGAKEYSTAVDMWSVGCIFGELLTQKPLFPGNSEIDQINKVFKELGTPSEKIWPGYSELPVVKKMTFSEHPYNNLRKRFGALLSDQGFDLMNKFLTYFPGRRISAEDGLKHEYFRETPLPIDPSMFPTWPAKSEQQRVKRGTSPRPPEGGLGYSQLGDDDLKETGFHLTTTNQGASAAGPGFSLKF

CDK16/Cyclin Y = CDK16/Cyclin Y (Homo sapiens, UniProt Q00536); assay: NanoBRET live-cell target engagement, CDK16-NanoLuc/Cyclin Y in HEK-293; assay type: binding; settings: CDK16/Y, read-out: Inhibition at 10µM (%)
CDK11B/Cyclin L2 = CDK11B/Cyclin L2 (Homo sapiens, UniProt P21127); assay: NanoBRET live-cell target engagement, CDK11B-NanoLuc/Cyclin L2 in HEK-293; assay type: binding; settings: CDK11b/L2, read-out: Inhibition at 10µM (%)
CDK6/Cyclin D1 = CDK6/Cyclin D1 (Homo sapiens, UniProt Q00534); assay: NanoBRET live-cell target engagement, NanoLuc-CDK6/Cyclin D1 in HEK-293; assay type: binding; settings: CDK6/D1, read-out: Inhibition at 10µM (%)
CDK17/Cyclin Y = CDK17/Cyclin Y (Homo sapiens, UniProt Q00537); assay: NanoBRET live-cell target engagement, CDK17-NanoLuc/Cyclin Y in HEK-293; assay type: binding; settings: CDK17/Y, read-out: Inhibition at 10µM (%)
CDK15/Cyclin Y = CDK15/Cyclin Y (Homo sapiens, UniProt Q96Q40); assay: NanoBRET live-cell target engagement, NanoLuc-CDK15/Cyclin Y in HEK-293; assay type: binding; settings: CDK15/Y, read-out: Inhibition at 10µM (%)
CDK15/Cyclin Y, sequence (Q96Q40 whole entry): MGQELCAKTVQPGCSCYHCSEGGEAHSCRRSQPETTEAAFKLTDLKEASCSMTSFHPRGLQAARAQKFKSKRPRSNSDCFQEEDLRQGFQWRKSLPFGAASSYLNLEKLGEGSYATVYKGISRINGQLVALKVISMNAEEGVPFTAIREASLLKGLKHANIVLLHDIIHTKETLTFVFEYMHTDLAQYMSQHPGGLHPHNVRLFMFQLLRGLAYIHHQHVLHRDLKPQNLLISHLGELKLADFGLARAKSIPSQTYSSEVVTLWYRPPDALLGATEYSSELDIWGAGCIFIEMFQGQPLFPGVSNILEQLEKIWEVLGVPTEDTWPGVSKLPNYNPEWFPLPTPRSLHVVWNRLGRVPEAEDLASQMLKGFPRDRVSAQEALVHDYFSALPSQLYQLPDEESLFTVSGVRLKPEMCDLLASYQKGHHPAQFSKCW
CDK15/Cyclin Y, sequence (Q8ND76 whole entry partner): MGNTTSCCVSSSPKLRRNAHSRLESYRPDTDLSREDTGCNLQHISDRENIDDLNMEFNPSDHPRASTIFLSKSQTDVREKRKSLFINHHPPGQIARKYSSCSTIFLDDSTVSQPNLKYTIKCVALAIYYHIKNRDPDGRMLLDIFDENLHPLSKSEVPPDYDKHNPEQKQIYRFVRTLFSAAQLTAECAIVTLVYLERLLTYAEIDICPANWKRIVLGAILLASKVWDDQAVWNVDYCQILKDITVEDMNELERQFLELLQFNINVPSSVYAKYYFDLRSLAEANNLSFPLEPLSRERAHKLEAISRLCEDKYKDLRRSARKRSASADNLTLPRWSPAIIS

CDK1/Cyclin E1 = CDK1/Cyclin E1 (Homo sapiens, UniProt P06493); assay: NanoBRET live-cell target engagement, CDK1-NanoLuc/Cyclin E1 in HEK-293; assay type: binding; settings: CDK1/E1, read-out: Inhibition at 10µM (%)
CDK10/Cyclin L2 = CDK10/Cyclin L2 (Homo sapiens, UniProt Q15131); assay: NanoBRET live-cell target engagement, CDK10-NanoLuc/Cyclin L2 in HEK-293; settings: read-out: Inhibition at 10µM (%), CDK10/L2
CDK13/Cyclin K = CDK13/Cyclin K (Homo sapiens, UniProt Q14004); assay: NanoBRET live-cell target engagement, CDK13-NanoLuc/Cyclin K in HEK-293; assay type: binding; settings: CDK13/K, read-out: Inhibition at 10µM (%)
CDK20/Cyclin H = CDK20/Cyclin H (Homo sapiens, UniProt Q8IZL9); assay: NanoBRET live-cell target engagement, NanoLuc-CDK20/Cyclin H in HEK-293; assay type: binding; settings: CDK20/H, read-out: Inhibition at 10µM (%)
CDK2/Cyclin E1 = CDK2/Cyclin E1 (Homo sapiens, UniProt P24941); assay: NanoBRET live-cell target engagement, CDK2-NanoLuc/Cyclin E1 in HEK-293; assay type: binding; settings: CDK2/E1, read-out: Inhibition at 10µM (%)
CDK9/Cyclin K = CDK9/Cyclin K (Homo sapiens, UniProt P50750); assay: NanoBRET live-cell target engagement, NanoLuc-CDK9/Cyclin K in HEK-293; assay type: binding; settings: CDK9/K, read-out: Inhibition at 10µM (%)
CDK8/Cyclin C = CDK8/Cyclin C (Homo sapiens, UniProt P49336); assay: NanoBRET live-cell target engagement, NanoLuc-CDK8/Cyclin C in HEK-293; assay type: binding; settings: CDK8/C, read-out: Inhibition at 10µM (%)
CDK8/Cyclin C, sequence (P49336 whole entry): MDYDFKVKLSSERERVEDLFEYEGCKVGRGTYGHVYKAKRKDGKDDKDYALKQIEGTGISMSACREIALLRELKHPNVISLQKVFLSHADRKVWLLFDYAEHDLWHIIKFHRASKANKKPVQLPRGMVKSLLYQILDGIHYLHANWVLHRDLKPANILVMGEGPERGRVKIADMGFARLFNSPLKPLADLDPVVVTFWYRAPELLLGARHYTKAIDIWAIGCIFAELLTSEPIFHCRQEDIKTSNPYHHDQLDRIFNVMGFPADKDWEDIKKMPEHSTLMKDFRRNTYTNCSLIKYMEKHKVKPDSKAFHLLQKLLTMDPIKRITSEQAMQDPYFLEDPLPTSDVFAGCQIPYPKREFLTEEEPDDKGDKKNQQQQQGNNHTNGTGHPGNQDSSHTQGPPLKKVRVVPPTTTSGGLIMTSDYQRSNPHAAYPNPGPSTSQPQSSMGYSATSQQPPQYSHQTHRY
CDK8/Cyclin C, sequence (P24863 whole entry partner): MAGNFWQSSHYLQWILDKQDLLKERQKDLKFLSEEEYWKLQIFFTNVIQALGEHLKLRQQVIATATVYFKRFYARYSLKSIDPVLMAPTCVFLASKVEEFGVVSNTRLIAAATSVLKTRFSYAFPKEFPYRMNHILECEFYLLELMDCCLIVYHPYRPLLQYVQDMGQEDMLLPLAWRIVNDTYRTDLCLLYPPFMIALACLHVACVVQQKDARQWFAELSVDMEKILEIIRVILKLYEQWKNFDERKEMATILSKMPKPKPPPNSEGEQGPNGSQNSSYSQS

CDK18/Cyclin Y = CDK18/Cyclin Y (Homo sapiens, UniProt Q07002); assay: NanoBRET live-cell target engagement, CDK18-NanoLuc/Cyclin Y in HEK-293; assay type: binding; settings: CDK18/Y, read-out: Inhibition at 10µM (%)
CDK18/Cyclin Y, sequence (Q07002 whole entry): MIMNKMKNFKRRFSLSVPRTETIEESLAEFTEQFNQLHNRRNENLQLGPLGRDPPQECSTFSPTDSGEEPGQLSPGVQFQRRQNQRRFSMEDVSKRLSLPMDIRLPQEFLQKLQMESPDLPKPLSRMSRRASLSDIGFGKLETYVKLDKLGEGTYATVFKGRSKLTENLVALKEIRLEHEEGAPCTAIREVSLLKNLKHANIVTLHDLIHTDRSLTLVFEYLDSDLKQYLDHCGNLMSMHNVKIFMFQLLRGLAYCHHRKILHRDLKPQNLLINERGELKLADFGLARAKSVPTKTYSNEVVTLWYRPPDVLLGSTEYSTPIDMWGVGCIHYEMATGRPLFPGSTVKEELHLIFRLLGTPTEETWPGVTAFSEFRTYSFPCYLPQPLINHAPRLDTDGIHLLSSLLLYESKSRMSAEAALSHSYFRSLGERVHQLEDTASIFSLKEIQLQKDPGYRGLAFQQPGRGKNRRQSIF
CDK18/Cyclin Y, sequence (Q8ND76 whole entry partner): as the sequence (Q8ND76 whole entry partner) above

CDK12/Cyclin K = CDK12/Cyclin K (Homo sapiens, UniProt Q9NYV4); assay: NanoBRET live-cell target engagement, CDK12-NanoLuc/Cyclin K in HEK-293; assay type: binding; settings: CDK12/K, read-out: Inhibition at 10µM (%)
CDK12/Cyclin K, sequence (Q9NYV4 1-1481 isoform Q9NYV4-2): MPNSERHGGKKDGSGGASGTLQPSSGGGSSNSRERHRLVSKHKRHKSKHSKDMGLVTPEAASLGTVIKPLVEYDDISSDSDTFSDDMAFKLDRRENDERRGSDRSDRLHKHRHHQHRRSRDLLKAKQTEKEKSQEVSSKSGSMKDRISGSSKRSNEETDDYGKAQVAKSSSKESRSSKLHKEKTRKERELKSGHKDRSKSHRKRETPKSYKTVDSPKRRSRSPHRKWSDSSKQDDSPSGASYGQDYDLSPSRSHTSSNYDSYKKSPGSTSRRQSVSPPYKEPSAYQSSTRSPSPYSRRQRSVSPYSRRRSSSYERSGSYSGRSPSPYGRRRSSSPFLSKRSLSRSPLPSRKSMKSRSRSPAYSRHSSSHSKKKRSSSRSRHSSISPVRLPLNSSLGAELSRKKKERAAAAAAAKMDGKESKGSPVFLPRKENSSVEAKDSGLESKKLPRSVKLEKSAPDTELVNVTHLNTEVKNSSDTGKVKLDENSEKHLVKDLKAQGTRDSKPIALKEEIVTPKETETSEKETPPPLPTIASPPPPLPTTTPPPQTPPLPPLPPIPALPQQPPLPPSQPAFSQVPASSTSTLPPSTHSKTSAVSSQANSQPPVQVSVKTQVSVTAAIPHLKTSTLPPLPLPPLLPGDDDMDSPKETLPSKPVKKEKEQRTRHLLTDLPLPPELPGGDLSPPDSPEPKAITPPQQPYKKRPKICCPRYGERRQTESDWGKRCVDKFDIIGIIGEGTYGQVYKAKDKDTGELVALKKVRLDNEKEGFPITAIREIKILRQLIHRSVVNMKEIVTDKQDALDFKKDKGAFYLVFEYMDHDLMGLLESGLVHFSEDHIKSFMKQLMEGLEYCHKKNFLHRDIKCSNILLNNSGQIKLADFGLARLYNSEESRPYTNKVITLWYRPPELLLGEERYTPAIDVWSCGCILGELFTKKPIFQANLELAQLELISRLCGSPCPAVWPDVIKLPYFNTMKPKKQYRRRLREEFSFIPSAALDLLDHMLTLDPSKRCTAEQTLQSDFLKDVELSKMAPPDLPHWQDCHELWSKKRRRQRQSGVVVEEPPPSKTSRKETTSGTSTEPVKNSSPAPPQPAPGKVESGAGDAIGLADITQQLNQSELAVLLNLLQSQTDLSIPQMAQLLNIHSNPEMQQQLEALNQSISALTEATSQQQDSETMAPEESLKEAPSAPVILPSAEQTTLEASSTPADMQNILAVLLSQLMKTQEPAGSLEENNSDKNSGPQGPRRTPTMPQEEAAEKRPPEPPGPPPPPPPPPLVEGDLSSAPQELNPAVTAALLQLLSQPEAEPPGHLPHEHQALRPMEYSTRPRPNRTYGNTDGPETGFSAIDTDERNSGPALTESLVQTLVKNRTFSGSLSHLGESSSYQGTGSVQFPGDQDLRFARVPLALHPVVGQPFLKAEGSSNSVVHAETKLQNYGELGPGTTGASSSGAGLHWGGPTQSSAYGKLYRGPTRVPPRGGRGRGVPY
CDK12/Cyclin K, sequence (O75909 whole entry partner): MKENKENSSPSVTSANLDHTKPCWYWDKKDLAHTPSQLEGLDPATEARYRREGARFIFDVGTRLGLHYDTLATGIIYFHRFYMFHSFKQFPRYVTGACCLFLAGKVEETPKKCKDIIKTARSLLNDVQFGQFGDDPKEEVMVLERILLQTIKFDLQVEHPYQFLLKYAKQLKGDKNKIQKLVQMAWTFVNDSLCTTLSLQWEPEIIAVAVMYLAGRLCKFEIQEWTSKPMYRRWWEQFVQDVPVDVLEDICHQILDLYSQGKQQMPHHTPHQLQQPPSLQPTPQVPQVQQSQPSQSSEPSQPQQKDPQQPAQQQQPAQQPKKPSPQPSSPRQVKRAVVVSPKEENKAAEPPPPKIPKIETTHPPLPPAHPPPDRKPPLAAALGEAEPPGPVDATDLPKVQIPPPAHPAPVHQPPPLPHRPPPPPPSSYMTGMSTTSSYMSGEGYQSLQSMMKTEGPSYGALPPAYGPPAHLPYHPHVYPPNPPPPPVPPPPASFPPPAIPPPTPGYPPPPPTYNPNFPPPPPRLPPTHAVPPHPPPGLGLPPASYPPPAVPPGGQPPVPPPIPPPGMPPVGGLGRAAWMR

CDK3/Cyclin E1 = CDK3/Cyclin E1 (Homo sapiens, UniProt Q00526); assay: NanoBRET live-cell target engagement, CDK3-NanoLuc/Cyclin E1 in HEK-293; assay type: binding; settings: CDK3/E1, read-out: Inhibition at 10µM (%)
CDK3/Cyclin E1, sequence (Q00526 whole entry): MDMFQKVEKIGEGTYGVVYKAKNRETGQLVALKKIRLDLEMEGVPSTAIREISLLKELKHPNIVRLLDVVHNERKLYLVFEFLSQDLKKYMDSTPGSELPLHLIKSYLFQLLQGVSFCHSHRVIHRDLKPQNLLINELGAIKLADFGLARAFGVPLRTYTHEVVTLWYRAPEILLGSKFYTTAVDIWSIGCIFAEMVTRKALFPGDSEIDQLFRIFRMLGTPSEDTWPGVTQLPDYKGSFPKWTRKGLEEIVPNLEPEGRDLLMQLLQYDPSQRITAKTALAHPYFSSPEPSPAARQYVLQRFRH
CDK3/Cyclin E1, sequence (P24864 whole entry partner): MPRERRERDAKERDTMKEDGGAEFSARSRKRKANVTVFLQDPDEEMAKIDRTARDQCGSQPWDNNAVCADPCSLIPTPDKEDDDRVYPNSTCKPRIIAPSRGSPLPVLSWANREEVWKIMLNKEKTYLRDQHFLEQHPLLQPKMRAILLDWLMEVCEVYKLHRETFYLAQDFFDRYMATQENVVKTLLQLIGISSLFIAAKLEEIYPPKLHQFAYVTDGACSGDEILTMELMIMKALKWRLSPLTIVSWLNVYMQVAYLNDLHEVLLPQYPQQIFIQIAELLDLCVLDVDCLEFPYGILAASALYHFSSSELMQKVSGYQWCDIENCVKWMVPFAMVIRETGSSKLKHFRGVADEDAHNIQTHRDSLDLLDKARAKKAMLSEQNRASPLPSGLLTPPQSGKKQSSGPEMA

## CC(C)N1CCN(c2ccc(Nc3ncc4cc5n(c4n3)C3(CCCCC3)CNC5=O)nc2)CC1 [Lerociclib]
CDK19/Cyclin C; average
  inhibition at 10 µM: 13%
CDK19/Cyclin C; experiment 1
  inhibition at 10 µM: 7.9%
CDK19/Cyclin C; experiment 2
  inhibition at 10 µM: 18.2%
CDK5/CDK5R1; average
  inhibition at 10 µM: 12.2%
CDK5/CDK5R1; experiment 1
  inhibition at 10 µM: 5.5%
CDK5/CDK5R1; experiment 2
  inhibition at 10 µM: 18.9%
CDK4/Cyclin D1; average
  inhibition at 10 µM: 93.4%
CDK4/Cyclin D1; experiment 1
  inhibition at 10 µM: 96.8%
CDK4/Cyclin D1; experiment 2
  inhibition at 10 µM: 90.1%
CDK11A/Cyclin L2; average
  inhibition at 10 µM: 7.4%
CDK11A/Cyclin L2; experiment 1
  inhibition at 10 µM: 2%
CDK11A/Cyclin L2; experiment 2
  inhibition at 10 µM: 12.8%
CDK16/Cyclin Y; experiment 1
  inhibition at 10 µM: 77.1%
CDK16/Cyclin Y; experiment 2
  inhibition at 10 µM: 32%
CDK11B/Cyclin L2; average
  inhibition at 10 µM: 16.1%
CDK11B/Cyclin L2; experiment 1
  inhibition at 10 µM: 0.226%
CDK11B/Cyclin L2; experiment 2
  inhibition at 10 µM: 32%
CDK6/Cyclin D1; average
  inhibition at 10 µM: 98.9%
CDK6/Cyclin D1; experiment 1
  inhibition at 10 µM: 97%
CDK6/Cyclin D1; experiment 2
  inhibition at 10 µM: 101%
CDK17/Cyclin Y; average
  inhibition at 10 µM: 58.5%
CDK17/Cyclin Y; experiment 1
  inhibition at 10 µM: 75.6%
CDK17/Cyclin Y; experiment 2
  inhibition at 10 µM: 41.4%
CDK15/Cyclin Y; average
  inhibition at 10 µM: 14.9%
CDK15/Cyclin Y; experiment 1
  inhibition at 10 µM: 5%
CDK15/Cyclin Y; experiment 2
  inhibition at 10 µM: 24.7%
CDK1/Cyclin E1; average
  inhibition at 10 µM: 7.7%
CDK1/Cyclin E1; experiment 1
  inhibition at 10 µM: 12.1%
CDK1/Cyclin E1; experiment 2
  inhibition at 10 µM: 3.2%
CDK10/Cyclin L2; average
  inhibition at 10 µM: 7.8%
CDK10/Cyclin L2; experiment 1
  inhibition at 10 µM: 9.5%
CDK10/Cyclin L2; experiment 2
  inhibition at 10 µM: 6.2%
CDK13/Cyclin K; average
  inhibition at 10 µM: -0.247%
CDK13/Cyclin K; experiment 1
  inhibition at 10 µM: 4.2%
CDK13/Cyclin K; experiment 2
  inhibition at 10 µM: -4.7%
CDK20/Cyclin H; experiment 1
  inhibition at 10 µM: 10.2%
CDK20/Cyclin H; experiment 2
  inhibition at 10 µM: 7.2%
CDK2/Cyclin E1; average
  inhibition at 10 µM: -5.8%
CDK2/Cyclin E1; experiment 1
  inhibition at 10 µM: -11%
CDK2/Cyclin E1; experiment 2
  inhibition at 10 µM: -0.6%
CDK9/Cyclin K; average
  inhibition at 10 µM: 29.3%
CDK9/Cyclin K; experiment 1
  inhibition at 10 µM: 31%
CDK9/Cyclin K; experiment 2
  inhibition at 10 µM: 27.6%
CDK8/Cyclin C; average
  inhibition at 10 µM: 4.9%
CDK8/Cyclin C; experiment 1
  inhibition at 10 µM: 6.7%
CDK8/Cyclin C; experiment 2
  inhibition at 10 µM: 3%
CDK18/Cyclin Y; average
  inhibition at 10 µM: 19.5%
CDK18/Cyclin Y; experiment 1
  inhibition at 10 µM: 22.1%
CDK18/Cyclin Y; experiment 2
  inhibition at 10 µM: 16.8%
CDK12/Cyclin K; average
  inhibition at 10 µM: 8.7%
CDK12/Cyclin K; experiment 1
  inhibition at 10 µM: -0.9%
CDK12/Cyclin K; experiment 2
  inhibition at 10 µM: 18.4%
CDK3/Cyclin E1; average
  inhibition at 10 µM: 3.3%
CDK3/Cyclin E1; experiment 1
  inhibition at 10 µM: 5%
CDK3/Cyclin E1; experiment 2
  inhibition at 10 µM: 1.6%
